# Measured values: patent US20250295570A1, “PEPTIDE HAVING ACTIVITY OF IMPROVING STATE OF SKIN, AND USE THEREOF” (CAREGEN CO., LTD., priority 2021, published 2025)
# Tests used:
# Type in all cases: cell-based, mouse
# NIH3T3 cells [1] = experiment: Inhibition of apoptosis of skin cells induced by ultraviolet rays (SRB survival rate); conditions: 50 μM or 100 μM peptide, 6 J/cm2 ultraviolet rays, 72 hours, FIG. 4
# Method: In this example, the aim was to confirm the effect of the peptide according to an example on the inhibition of apoptosis or cell recovery of skin cells induced by ultraviolet rays, by evaluating the change in survival rate of skin cells whose apoptosis was induced by ultraviolet irradiation.
# Specifically, NIH3T3 cells were seeded in a […] at a density of 1×10^4 cells/well and cultured for 24 hours. The cells were then washed once with serum-free DMEM media, the culture medium was replaced with serum-free DMEM media, and 50 μM or 100 μM of the peptide consisting of the amino acid sequence of SEQ ID NO: 1 was dispensed to the culture medium. The culture medium dispensed with the peptide was cultured in a CO2 incubator at 37° C. for 1 hour, transferred to an e-tube, mixed with 100 ul of PBS, and dispensed into a well plate. Afterwards, using a UV irradiator (VILBER LOURMAT, France), 6 J/cm2 ultraviolet rays were irradiated to NIH3T3 cells. The PBS in the well plate was then removed, 900 μL of the culture medium in which the peptides were dispensed was added, and the plate was cultured in a CO2 incubator at 37° C. for 72 hours. […] The dried culture was then dissolved in 20 mM Tris buffer solution and the absorbance at 560 nm was measured using a microplate reader (Molecular Devices, USA). […]
# elastin = experiment: Expression of extracellular matrix constituent factor elastin (RT-PCR) in NIH3T3 cells; conditions: 50 μM or 100 μM peptide, 24 hours, FIG. 2 and FIG. 3
# Method: (§1) In this example, the aim was to confirm the effect of the peptide according to an example on improving endogenous skin aging, including improvement of wrinkles and enhancement of elasticity, etc., by evaluating the expression levels of collagen type 1 (Col1a1), fibronectin, or elastin, which are known components of the dermis.
# (§2) Specifically, NIH3T3 cells were seeded in a 6-well plate at a density of 3×10^5 cells/well and cultured for 24 hours. The cells were then washed once with serum-free DMEM media, and the culture medium was replaced with serum-free DMEM media. Thereafter, 50 μM or 100 μM of the peptide consisting of the amino acid sequence of SEQ ID NO: 1 was dispensed into the medium, and cultured in a CO2 incubator at 37° C. for 24 hours. The culture was then washed twice with PBS, and RNA was isolated from the culture using easy blue (iNtRON, Korea). Using an RT kit (Enzynomics, Korea), 1 μg of the isolated RNA was reverse transcribed to synthesize the respective cDNA. Polymerase chain reaction (PCR) was then performed using the cDNAs and primers Col1a1, fibronectin, and elastin. Meanwhile, the untreated group was used as the control group, and the group to which TGF-β1 was added (TGF-β1) was used as the positive control group, the nucleotide sequences of the primers used in this example are shown in Table 2 below.
# collagen type 1 (Col1a1) = experiment: Expression of extracellular matrix constituent factor Col1a1 (RT-PCR) in NIH3T3 cells; conditions: 50 μM or 100 μM peptide, 24 hours, FIG. 2 and FIG. 3
# Method: as §1, §2
# NIH3T3 cells [2] = experiment: Antioxidant effect on skin cells induced by ultraviolet rays (reactive oxygen species, DCF-DA, FACS); conditions: 50 μM or 100 μM peptide, 6 J/cm2 ultraviolet rays, 24 hours, FL1 fluorescence by flow cytometry, FIG. 5
# Method: In this example, the aim was to confirm the effect of the peptide according to an embodiment on the antioxidant effect of skin cells induced by ultraviolet rays, by evaluating the level of reactive oxygen species in skin cells increased by ultraviolet irradiation.
# Specifically, NIH3T3 cells were seeded in a 6-well plate at a density of 5×10^5 cells/well and cultured for 24 hours. The cells were then washed once with serum-free DMEM media, the culture medium was replaced with serum-free DMEM media, and 50 μM or 100 μM of the peptide consisting of the amino acid sequence of SEQ ID NO: 1 was dispensed to the culture medium. The culture medium dispensed with the peptide was cultured in a CO2 incubator at 37° C. for 1 hour, transferred to an e-tube, mixed with 100 ul of PBS, and dispensed into a well plate. Afterwards, using a UV irradiator (VILBER LOURMAT, France), 6 J/cm2 ultraviolet rays were irradiated to NIH3T3 cells. The PBS in the well plate was then removed, 900 μL of the culture medium in which the peptides were dispensed was added, and the plate was cultured in a CO2 incubator at 37° C. for 24 hours. The culture was then treated with DCFG-DA (2′,7′-dichlorofluorescin diacetate), wrapped in foil, and cultured in a CO2 incubator at 37° C. for 30 minutes. […] After washing the centrifuged cells with PBS, FL1 fluorescence values were measured through flow cytometry (FACS, BD, USA). […]
# NIH3T3 cells [3] = experiment: Proliferation of skin cells (SRB staining, survival rate of NIH3T3 cells); conditions: 50 μM or 100 μM peptide, 72 hours, serum-free DMEM, SRB absorbance at 560 nm, FIG. 1
# Method: In this example, the aim was to confirm the effect of a peptide according to an example on proliferation of skin cells, by evaluating changes in survival rate of NIH3T3 cells, which are mouse fibroblasts.
# Specifically, NIH3T3 cells were seeded in a […] at a density of 5×10^3 cells/well and cultured for 24 hours. The cells were then washed once with serum-free DMEM media, and the culture medium was replaced with serum-free DMEM media. Then, 50 μM or 100 μM of the peptide consisting of the amino acid sequence of SEQ ID NO: 1 was dispensed into the medium, and cultured in a CO2 incubator at 37° C. for 72 hours. The culture was then washed twice with PBS and treated with 4% paraformaldehyde (PFA) solution for 15 minutes to fix the cultured cells. The culture was then washed twice with distilled water, treated with SRB solution for 1 hour to stain the cells, washed with 1% acetic acid solution, and dried. The dried culture was then dissolved in 20 mM Tris buffer solution and the absorbance at 560 nm was measured using a microplate reader (Molecular Devices, USA). In this example, the untreated group was used as the control group, and the group to which insulin-like growth factor was added (IGF) was used as the positive control group.
# fibronectin = experiment: Expression of extracellular matrix constituent factor fibronectin (RT-PCR) in NIH3T3 cells; conditions: 50 μM or 100 μM peptide, 24 hours, FIG. 2 and FIG. 3
# Method: as §1, §2
sequence,measurement,setting,value
SHNFREEPEMRR (Peptide 1) [SEQ ID NO: 1],cell survival rate of fibroblasts reduced by ultraviolet irradiation,NIH3T3 cells [1],restored
same,expression of elastin,elastin,increased
same,expression of Col1a1,collagen type 1 (Col1a1),increased
same,level of reactive oxygen species in fibroblasts increased by ultraviolet irradiation,NIH3T3 cells [2],reduced
same,proliferation of fibroblasts,NIH3T3 cells [3],promoted
same,expression of fibronectin,fibronectin,increased
